According to patent US20210300960A1, “SUGAR DERIVATIVE OR SALT THEREOF, AND ANTIBACTERIAL AGENT OR ANTIBACTERIAL ACTIVITY ENHANCER USING SAME” (NAGOYA INSTITUTE OF TECHNOLOGY, priority 2016, published 2021):
Where two headings read alike, the source gives them in different places.

Columns and labels:
Pseudomonas aeruginosa = test: Antimicrobial activity enhancing action: MIC of novobiocin or erythromycin alone or in combined use with cyclodextrin derivative, Pseudomonas aeruginosa; assay type: cell-based; details: cyclodextrin derivative 0 μg/mL (single use)
Protocol: The evaluation was performed by a procedure as follows. Specifically, before testing, each of the bacteria were incubated on a minimal salt medium combined with common bacteria-use dried broth or polypeptone and reached a logarithmic growth phase. […] The testing incubation was performed at an initial bacterial concentration of 1×10^4 cells per milliliter.
The test was performed using bacteria Escherichia coli and Pseudomonas aeruginosa.

Escherichia coli = test: Antimicrobial activity enhancing action: MIC of novobiocin or erythromycin alone or in combined use with cyclodextrin derivative, Escherichia coli; assay type: cell-based
Protocol: The evaluation was performed by a procedure as follows. Specifically, before testing, each of the bacteria were incubated on a minimal salt medium combined with common bacteria-use dried broth or polypeptone and reached a logarithmic growth phase. […] Some of existing antimicrobial substances fail to exert their inherent antimicrobial activities, due to the bacterial membrane serving as a physical barrier. In these cases, the substances offer high minimum inhibitory concentrations (MICs) necessary for inhibiting the bacterial growth and are considered as having no antimicrobial (antibacterial) activity. In particular, this allows Gram-negative bacteria, which have not only a cytoplasmic membrane, but also a bacterial outer membrane, to have remarkable drug resistance. […] Next, the compound (cyclodextrin derivative) (a) represented by Chemical Formula (11) was evaluated for antimicrobial activity enhancing action through a test performed by a procedure similar to that in Example 3.

SMILES | Minimum inhibitory concentration (MIC) of novobiocin (Pseudomonas aeruginosa) [µg/mL] | MIC (Pseudomonas aeruginosa; read-out: Minimum inhibitory concentration (MIC) of novobiocin) [µg/mL] | MIC (Escherichia coli; cyclodextrin derivative 0 μg/mL (single use), read-out: Minimum inhibitory concentration (MIC) of novobiocin) [µg/mL] | MIC (Escherichia coli; read-out: Minimum inhibitory concentration (MIC) of erythromycin, cyclodextrin derivative 0 μg/mL (single use)) [µg/mL]
CO[C@@H]1[C@@H](OC(N)=O)[C@@H](O)[C@H](Oc2ccc3c(O)c(NC(=O)c4ccc(O)c(CC=C(C)C)c4)c(=O)oc3c2C)OC1(C)C [novobiocin] | 2048 | 2050 | 128 | 
CC[C@H]1OC(=O)[C@H](C)[C@@H](O[C@H]2C[C@@](C)(OC)[C@@H](O)[C@H](C)O2)[C@H](C)[C@@H](O[C@@H]2O[C@H](C)C[C@H](N(C)C)[C@H]2O)[C@](C)(O)C[C@@H](C)C(=O)[C@H](C)[C@@H](O)[C@]1(C)O [erythromycin] |  |  |  | 64
